# Like-named read-outs stand apart in the source and are kept apart here.
# Tests used:
# [1] = test system: human lung cancer strain NCI-H441; settings: read-out: NCI-H441 cell proliferation inhibitory activity, 50% proliferation inhibitory concentration (IC50 value); NCI-H441, four days, CellTiter-Glo;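 further: cell proliferation inhibition after four days measured by CellTiter-Glo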
# [2] = molecular target: GDP-bound NRAS wild-type protein (Homo sapiens, UniProt P01111); assay: Binding to NRAS by surface plasmon resonance (SPR), Single Cycle Kinetics; settings: SPR; for NRAS/KRAS (ratio of KD value for NRAS to KD value for KRAS): GDP-bound NRAS wild-type protein vs GDP-bound KRAS wild-type protein
# [3] = molecular target: GDP-bound HRAS wild-type protein (Homo sapiens, UniProt P01112); assay: Binding to HRAS by surface plasmon resonance (SPR), Single Cycle Kinetics; settings: SPR; for HRAS/KRAS (ratio of KD value for HRAS to KD value for KRAS): GDP-bound HRAS wild-type protein vs GDP-bound KRAS wild-type protein
# [4] = molecular target: GDP-bound KRAS wild-type protein (Homo sapiens, UniProt P01116); assay: Binding to KRAS by surface plasmon resonance (SPR), Single Cycle Kinetics; settings: SPR, Single Cycle Kinetics
# [5] = GDP-bound KRAS wild-type protein, read-out: KRAS KD
# [6] = 1:1 binding model, read-out: KD value with respect to GDP-bound KRAS wild-type protein
# GDP-bound HRAS wild-type protein, sequence (P01112 whole entry): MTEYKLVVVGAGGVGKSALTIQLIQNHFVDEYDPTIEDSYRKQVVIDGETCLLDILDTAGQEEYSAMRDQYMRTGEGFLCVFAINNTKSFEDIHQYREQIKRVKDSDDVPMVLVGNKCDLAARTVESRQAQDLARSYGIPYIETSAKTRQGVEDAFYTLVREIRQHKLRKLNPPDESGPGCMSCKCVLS
# GDP-bound KRAS wild-type protein, sequence (P01116 whole entry): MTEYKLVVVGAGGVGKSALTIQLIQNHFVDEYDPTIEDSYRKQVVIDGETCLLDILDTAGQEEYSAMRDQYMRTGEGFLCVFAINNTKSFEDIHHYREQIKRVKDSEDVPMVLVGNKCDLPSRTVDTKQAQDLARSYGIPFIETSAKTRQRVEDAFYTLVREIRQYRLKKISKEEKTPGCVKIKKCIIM
# GDP-bound NRAS wild-type protein, sequence (P01111 whole entry): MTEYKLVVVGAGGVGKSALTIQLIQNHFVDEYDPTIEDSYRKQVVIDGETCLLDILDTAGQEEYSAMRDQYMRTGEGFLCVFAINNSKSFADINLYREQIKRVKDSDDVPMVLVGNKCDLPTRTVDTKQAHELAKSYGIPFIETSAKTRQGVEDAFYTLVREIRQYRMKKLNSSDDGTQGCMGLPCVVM
Structure (SMILES),IC50 [1],NRAS/KRAS (ratio of KD value for NRAS to KD value for KRAS) [2],ratio of the KD value with respect to GDP-bound NRAS wild-type protein to the KD value with respect to KRAS [2],HRAS/KRAS (ratio of KD value for HRAS to KD value for KRAS) [3],ratio of the KD value with respect to GDP-bound HRAS wild-type protein to the KD value with respect to KRAS [3],"Kd [4, 5]","Kd [4, 6]"
CCCO[C@@H]1C[C@H]2C(=O)NC3(CC(C)(C)C3)C(=O)N(C)[C@@H](C3CCCC3)C(=O)N(C)[C@H](C(=O)N(C)C)CC(=O)N(C)[C@H]3CCCCc4ccc(cc4)C[C@@H](C(=O)N(C)CC(=O)N[C@@H](CCc4ccc(Cl)c(Cl)c4)C(=O)N2C1)N1CC/C=C\C[C@@H](C1=O)N(C)C(=O)CN(C)C(=O)[C@H]([C@@H](C)CC)NC3=O [PP3092],7.4 nM,A (a compound having 10 or more and less than 20 is denoted as A),A (a compound having 10 or more and less than 20 is denoted as A),A (a compound having 10 or more and less than 20 is denoted as A),A (a compound having 10 or more and less than 20 is denoted as A),0.09 nM,–
"CCO[C@@H]1C[C@H]2C(=O)NC3(CC(C)(C)C3)C(=O)N(C)[C@@H](C3CCCC3)C(=O)N(C)[C@H](C(=O)N3CCCCC3)CC(=O)N(C)[C@H]3CCCCc4ccc(cc4)C[C@@H](C(=O)N(C)CC(=O)N[C@@H](CCc4ccc(C(F)(F)F)c(OC)c4)C(=O)N2C1)N1CC/C=C\C[C@@H](C1=O)N(C)C(=O)CN(C)C(=O)[C@H]([C@@H](C)CC)NC3=O [PP3093, (1S,7S,11R,13S,19S,22S,26S,29S,35S,37Z)-19-cyclopentyl-11-ethoxy-7-[2-[3-methoxy-4-(trifluoromethyl)phenyl]ethyl]-3,3′,3′,18,21,25,31,34-octamethyl-29-[(1S)-1-methylpropyl]-22-(piperidine-1-carbonyl)spiro[3,6,9,15,18,21,25,28,31,34,41-undecazapentacyclo[24.15.9.2^43,46.1^35,41.0^9,13]tripentaconta-37,43(52),44,46(51)-tetraene-16,1′-cyclobutane]-2,5,8,14,17,20,24,27,30,33,53-undecone]",3.2 nM,A (a compound having 10 or more and less than 20 is denoted as A),A (a compound having 10 or more and less than 20 is denoted as A),A (a compound having 10 or more and less than 20 is denoted as A),A (a compound having 10 or more and less than 20 is denoted as A),0.097 nM,0.097 nM
"CCCO[C@@H]1C[C@H]2C(=O)NC3(CC(C)(C)C3)C(=O)N(C)[C@@H](C3CCCC3)C(=O)N(C)[C@H](C(=O)N3CCCC3)CC(=O)N(C)[C@H]3CCCCc4ccc(cc4)C[C@@H](C(=O)N(C)CC(=O)N[C@@H](CCc4ccc(C(F)(F)F)c(OC)c4)C(=O)N2C1)N1CC/C=C\C[C@@H](C1=O)N(C)C(=O)CN(C)C(=O)[C@H]([C@@H](C)CC)NC3=O [PP3094, (1S,7S,11R,13S,19S,22S,26S,29S,35S,37Z)-19-cyclopentyl-7-[2-[3-methoxy-4-(trifluoromethyl)phenyl]ethyl]-3,3′,3′,18,21,25,31,34-octamethyl-29-[(1S)-1-methylpropyl]-11-propoxy-22-(pyrrolidine-1-carbonyl)spiro[3,6,9,15,18,21,25,28,31,34,41-undecazapentacyclo[24.15.9.2^43,46.1^35,41.0^9,13]tripentaconta-37,43(52),44,46(51)-tetraene-16,1′-cyclobutane]-2,5,8,14,17,20,24,27,30,33,53-undecone]",2.2 nM,A (a compound having 10 or more and less than 20 is denoted as A),A (a compound having 10 or more and less than 20 is denoted as A),B (a compound having 3 or more and less than 10 is denoted as B),B (a compound having 3 or more and less than 10 is denoted as B),0.081 nM,0.081 nM

# Reference: US20240158446A1, “CYCLIC COMPOUND HAVING SELECTIVE INHIBITORY ACTION ON KRAS OVER HRAS AND NRAS” (CHUGAI SEIYAKU KABUSHIKI KAISHA, priority 2021, published 2024)
